# Reference: paper PMC11239005, “Preclinical studies of RA475, a guanidine-substituted spirocyclic candidate RPN13/ADRM1 inhibitor for treatment of ovarian cancer” (PLOS ONE, 2024)
# Tests used:
# [1] = tested on: ID8-Vegf Defb29 cells stably expressing firefly luciferase; experiment: Syngeneic ID8-luc ovarian tumor model, IP; assay type: in vivo; details: C57BL6 mice, 40 mg/Kg every 3 days IP
# Method: Female C57BL6 mice were inoculated IP with 3x10^5 ID8-Defb29/VegfA-luc cells in 100 μL PBS. At day 3, mice were imaged for basal level luminescence activity with a Xenogen IVIS 200 after IP injection with luciferin (0.3 mg in 100 μL water). Mice were randomized into groups and treated IP with compounds or vehicle (25% (w/v) β-Hydroxypropylcyclodextrin in water), and imaged again on days indicated.
# In addition to direct tumor cell killing, it is possible that RA475 may trigger an immunogenic cell death and thus anti-tumor immunity that could contribute to tumor control. Therefore, we elected to first test the treatment potential of RA475 in an ovarian tumor in a syngeneic mouse model. Since ovarian cancer is shed into, and spread within the peritoneal cavity, female C57BL6 mice were injected IP with ID8-Vegf Defb29 cells stably expressing firefly luciferase (0.5 x 10^6 cells ID8-luc) in PBS (100 μL). After 72 h, mice were imaged for their basal luminescence levels using an IVIS200 imager to confirm the presence of viable tumor cells. Mice with visible luminescence were randomized into two groups and treated with Vehicle (25% β-hydroxy propylcyclodextrin in water, 200 μL, every 3 days, IP) and RA475 (40 mg/Kg, every 3 days, IP). Mice were weighed and, after administration of luciferin (100 μL, 7.8 mg/mL), imaged every week to assess bioluminescence associated with tumor burden. […]
# Fig 6 Treatment with RA475 of mice bearing an orthotopic syngeneic ovarian cancer model tumor. Female C57BL6 mice bearing ID8-Luc tumor were monitored for tumor burden by IVIS imaging (A), survival (B) and animal weight (C) after treatment with IP treatment every three days with RA475 (40mg/Kg, n = 8) or vehicle alone (n = 7). […] After 72 h, mice were imaged after administration of luciferin (100 μL, 7.8 mg/mL) for their basal luminescence levels using an IVIS200 imager. Mice with visible luminescence were randomized into two groups and treated with Vehicle alone (25% β-hydroxy propylcyclodextrin in water, 200 μL, every 3 days, IP) or RA475 (40 mg/Kg, every 3 days, IP). […]
# 4UbFL in 4T1 cells = experiment: 4UbFL reporter assay, 4T1; assay type: cell-based; details: 4T1 stably expressing 4UbFL, 4 h
# Method: Sub-confluent cultures of cells were transfected with 4UbFL plasmid using TransIT 2020 reagent (Mirus Bio). Cells were seeded at 10,000 cells/well in 96-well plates 48 h post transfection, and incubated with compounds or vehicle (DMSO) at the doses and for the times indicated. Luciferase activity in cell lysate was determined with a luciferase assay kit (Promega) according to the manufacturer’s instructions. Bioluminescence was measured using a Glomax Multidetection system (Promega).
# Fig 3 Impact of RA475 on proteasome function. […] Actin was used as loading control. […] After a 4 h incubation, the cells were lysed and the luciferase activity in each cell lysate was determined with a luciferase assay kit (Promega) according to the manufacturer’s instructions. Bioluminescence was measured by using a luminometer (Glomax Multidetection system, Promega) E) A patch was shaved of hair on one leg of CD-1 mice, and 10 μg 4UbFL plasmid in 20 μL of PBS was injected into the quadriceps femoralis muscle followed immediately by injection of the 2 Needle Array to 5 mm depth encompassing the injection site and square wave electroporation (ElectroSquarePorator 833, BTX-2 Needle array 5mm gap, Harvard apparatus) delivered as eight pulses at 106V for 20 ms with 200 ms intervals. […] Equally sized areas were analyzed using Living Image 2.20 software. […]
structure (smiles),measurement,setting,value
"Cl.Cl.N#Cc1ccc(/C=C2/C(=O)/C(=C/c3ccc(C#N)cc3)C23CCN(C(=N)N)CC3)cc1 [RA475, 1,3-bis((E)-4-cyanobenzylidene)-2-oxo-7-azaspiro[3.5]nonane-7-carboximidamide dihydrochloride]",survival,[1],prolonged survival
same,tumor burden by bioluminescence,[1],tumor control
same,animal weight,[1]; while on treatment,continue to gain weight
same,4UbFL bioluminescence signal,4UbFL in 4T1 cells,dose dependent increases in bioluminescence signal
